Data on seven compounds can be found in ChEMBL document CHEMBL2375223, “Disulfide linked pyrazole derivatives inhibit phagocytosis of opsonized blood cells” (Bioorg Med Chem Lett, 2013).

The subject of one assay is PBMC. In words: Induction of apoptosis in human PBMC at 5 uM assessed as apoptotic index after 1 hr by Annexin V-APC/propidium iodide staining-based FACS analysis relative to IVIG. Type of assay: functional. In general terms: Flow cytometry measures light scatter and fluorescence of single cells or particles in a stream.
Assay [1] addresses High affinity immunoglobulin gamma Fc receptor I (Homo sapiens) (UniProt P12314). Nature of the assay: Inhibition of FCgamma receptor in human PBMC assessed as inhibition of opsonized RBC phagocytosis at 5 uM incubated for 1 hr prior to RBC addition measured after 2 hrs by monocyte monolayer assay relative to control.
The target is the same in assay [2]. In words: Inhibition of FCgamma receptor in human PBMC assessed as inhibition of opsonized RBC phagocytosis at 1 mM incubated for 1 hr prior to RBC addition measured after 2 hrs by monocyte monolayer assay relative to control.

SMILES strings stand for the structures. The source made the active and inactive calls. The calls are words filed in the database; no cut-off is given here.

Sequence of High affinity immunoglobulin gamma Fc receptor I (Homo sapiens) (P12314 whole entry): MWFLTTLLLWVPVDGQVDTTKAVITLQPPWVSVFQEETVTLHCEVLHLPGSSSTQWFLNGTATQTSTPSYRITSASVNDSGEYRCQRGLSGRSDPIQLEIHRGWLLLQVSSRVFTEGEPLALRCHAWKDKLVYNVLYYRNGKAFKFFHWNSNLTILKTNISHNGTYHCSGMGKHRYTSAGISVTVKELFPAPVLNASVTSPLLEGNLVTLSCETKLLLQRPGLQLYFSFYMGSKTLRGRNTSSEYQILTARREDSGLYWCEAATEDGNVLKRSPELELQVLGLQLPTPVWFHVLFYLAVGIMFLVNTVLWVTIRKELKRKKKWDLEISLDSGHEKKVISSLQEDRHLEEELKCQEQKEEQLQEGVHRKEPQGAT

Usually inhibition stands for how much of the control response was suppressed. Take `Cc1nn(-c2ccccc2)c(SSc2c(C(=O)N3CCOCC3)c(C)nn2-c2ccccc2)c1C(=O)N1CCOCC1`: the “fold change (FC)” value in the assay with PBMC worked out at 1.88. The inhibition in assay [1] came out at 20%.

As to `Cc1nn(-c2ccccc2)c(SSc2c(C(=O)c3ccccc3)c(C)nn2-c2ccccc2)c1C(=O)c1ccccc1`, the “fold change (FC)” value with PBMC was determined as 1.04. Besides, the inhibition in assay [1] came out at 22%.

In the case of `Cc1nn(-c2ccccc2)c(SSc2c(C(=O)N3CCCCC3)c(C)nn2-c2ccccc2)c1C(=O)N1CCCCC1`, the “fold change (FC)” value in the assay on PBMC is recorded as 1.87. Also, the inhibition in assay [1] amounted to 34%.

Regarding `Cc1cc(SSc2cc(C)nn2-c2ccccc2)n(-c2ccccc2)n1`, in the assay on PBMC, the “fold change (FC)” value is on record as 2.78. In addition, the inhibition in assay [1] is 43%.

As to `Cc1nn(-c2ccccc2)c(S)c1C(=O)c1ccccc1`, the “fold change (FC)” value in the assay on PBMC is given as 1.29. For the same compound, in assay [1], the inhibition was determined as 0%. In assay [2], the inhibition entry is “inactive”.

As for `Cc1nn(-c2ccccc2)c(SSc2c(C(=O)c3cccs3)c(C)nn2-c2ccccc2)c1C(=O)c1cccs1`, in the assay on PBMC, the “fold change (FC)” value worked out at 0.69. Also, in assay [1], the inhibition stood at 19%.

For `Cc1nn(-c2ccccc2)c(S)c1C(=O)c1ccno1`, the inhibition result in assay [1] is “inactive”.
